# Results published in US11690810B2, “Combination treatment of bacterial infection” (The Chinese University of Hong Kong, priority 2018, dated 2023).
# Where two headings read alike, the source gives them in different places.
# Key:
# [1] = test system: clinical fusidic acid resistant MRSA strain 82356; test: MIC and checkerboard (FIC) assay; format: cell-based, Staphylococcus aureus; conditions: for FIC / MIC combine: 82356
# [2] = test system: human peripheral blood mononuclear cells (PBMC); test: XTT cytotoxicity testing; format: cell-based; conditions: 2-64 μg/ml, vs drug free control
# Procedure: (§1) The plates were maintained in a 37° C. incubator.
# The cytotoxicity of kuraridin and its analogues were determined by the sodium 3′-[1-(phenylaminocarbonyl)-3,4-tetrazolium]-bis (4-methoxy-6-nitro) benzene sulfonic acid hydrate (XTT) assay.
# Serial dilutions of the compounds ranging 2-64 μg/ml were incubated with PBMCs at 37° C. for 72 hrs.
# [3] = test system: Human Mammary Epithelial Cell (HMEC); test: XTT cytotoxicity testing; format: cell-based; conditions: 2-64 μg/ml, vs drug free control
# Procedure: as §1
# [4] = test system: cytokines production of human PBMC stimulated with PGN or SEB; format: cell-based
# [5] = test system: Panton-Valentine leukocidin positive CA-MRSA strain ST30; format: in vivo, Balb/c mice; conditions: ST30; used alone at 60 and 120 mg/kg
# [6] = test system: adherence of MRSA strain JE-2 to fibrinogen; test: Fibrinogen-binding adherence assay (crystal violet); format: cell-based, Staphylococcus aureus; conditions: varying concentrations
# [7] = test system: adherence of MRSA strain JE-2 to HaCat keratinocytes; test: Bacterial adherence to HaCaT keratinocytes; format: cell-based, Staphylococcus aureus
# [8] = test system: internalization of MRSA strain JE-2 by HaCat keratinocytes; test: Internalization of S. aureus by HaCaT keratinocytes; format: cell-based, Staphylococcus aureus
# [9] = test system: bacterial aggregation of MRSA JE-2; test: Aggregation assay of MRSA JE-2; format: cell-based, Staphylococcus aureus; conditions: JE-2; varying concentrations
# [10] = test system: S. aureus ATCC25923 (methicillin sensitive); conditions: ATCC 25293; ECG with Kur
# [11] = test system: NorA overexpressed S. aureus; conditions: ECG at 20 μg/ml; norfloxacin-resistant S. aureus overexpressing NorA (16); cited from earlier work
# Solubility = conditions: saline or isotonic
# [12] = test system: Human Umbilical Vein Endothelial Cells (HUVEC); test: XTT cytotoxicity testing; conditions: 2-64 μg/ml, vs drug free control
# [13] = test system: S. aureus SA-APH3′ (APH3), resistant to kanamycin; test: MIC and checkerboard (FIC) assay
# [14] = test system: S. aureus SA-RN4220-pUL5054 (RN4220); test: MIC and checkerboard (FIC) assay
# [15] = test system: S. aureus SA-1199B (NorA efflux pump overexpressed); test: MIC and checkerboard (FIC) assay; conditions: for FIC / MIC combine: 1199B; for MIC: read-out: MIC alone, 1199B
# CA MRSA W45 = test: MIC and checkerboard (FIC) assay
# CA MRSA W46 = test: MIC and checkerboard (FIC) assay
# CA MRSA W47 = test: MIC and checkerboard (FIC) assay
# CA MRSA W48 = test: MIC and checkerboard (FIC) assay
# HA MRSA W231 = test: MIC and checkerboard (FIC) assay
# HA MRSA W234 = test: MIC and checkerboard (FIC) assay
# [16] = test system: panel of laboratory MRSA strains; test: MIC and combination tests, panel of laboratory strains
# [17] = Staphylococcus aureus, MRSA, read-out: MIC alone
# [18] = Staphylococcus aureus, read-out: MIC 99.9
# [19] = Staphylococcus aureus, read-out: MIC alone
structure (smiles),measurement,setting,value
"O=C(O[C@@H]1Cc2c(O)cc(O)cc2O[C@@H]1c1ccc(O)c(O)c1)c1cc(O)c(O)c(O)c1 [ECG, epicatechin gallate]",FIC,[1]; ECG+Kur+Fus,0.008
same,MIC combine,[1]; ECG+Kur+Fus,0.25 mg/L
same,FIC,"[1]; ECG+Kur, no Fus",0.016
same,MIC combine,"[1]; ECG+Kur, no Fus",8 mg/L
same,MIC,[1]; [17],512 mg/L
same,Cellular toxicity (XTT assay),[2],not toxic
same,Cellular toxicity (XTT assay),[3],not toxic
same,IL-10 and IL-12 production,[4],mildly suppressed
same,TNF-α production,[4],no significant effects
same,log CFU counts and survival rates,[5],could not reduce the log CFU counts or improve the survival rates
same,fibrinogen-binding adherence,[6],dose-dependent reduction of adherence
same,decrease in the adherence of the WT strain to HaCaT cells,[7]; 64 μg/ml of ECG,1.4 fold
same,percentage of adherence of the bacteria to HaCaT cells,[7]; ECG 4 μg/ml,73.0±4.1%
same,percentage of adherence of the bacteria to HaCaT cells,[7]; ECG 8 μg/ml,75.4±11.0%
same,percentage of adherence of the bacteria to HaCaT cells,[7]; ECG 16 μg/ml,76.4±7.0%
same,percentage of adherence of the bacteria to HaCaT cells,[7]; ECG 32 μg/ml,58.8±8.5%
same,percentage of adherence of the bacteria to HaCaT cells,[7]; ECG 64 μg/ml,52±6.5%
same,percentage of internalized bacteria by HaCaT cells,[8]; ECG 4 μg/ml,62.2±2.7%
same,percentage of internalized bacteria by HaCaT cells,[8]; ECG 8 μg/ml,62.8±10.5%
same,percentage of internalized bacteria by HaCaT cells,[8]; ECG 16 μg/ml,53.7±6.3%
same,percentage of internalized bacteria by HaCaT cells,[8]; ECG 32 μg/ml,42.2±8.9%
same,percentage of internalized bacteria by HaCaT cells,[8]; ECG 64 μg/ml,34.7±4.5%
same,bacterial aggregation,[9],No significant reduction
same,FIC,[10],0.008
same,MIC combine,[10],4 mg/L
same,potentiation of the activity of norfloxacin,[11],four-fold potentiation
same,solubility,Solubility,20 mg/mL
same,Cellular toxicity (XTT assay),[12],not toxic
same,FIC,"[13]; APH3, Kuraridin with ECG",0.0009
same,MIC combine,"[13]; APH3, Kuraridin with ECG",0.5 mg/L
same,MIC90,[13]; Staphylococcus aureus,4 mg/L
same,MIC99,[13]; [18],> 512 mg/L
same,MIC,[13]; [19],512 mg/L
same,FIC,"[14]; RN4220, Kuraridin with ECG",0.01
same,MIC combine,"[14]; RN4220, Kuraridin with ECG",8 mg/L
same,MIC90,[14]; Staphylococcus aureus,8 mg/L
same,MIC99,[14]; [18],> 512 mg/L
same,MIC,[14]; [19],512 mg/L
same,FIC,[15]; Baicalein with ECG,0.25
same,MIC combine,[15]; Baicalein with ECG,8 mg/L
same,FIC,[15]; Kuraridin with ECG,0.06
same,MIC combine,[15]; Kuraridin with ECG,32 mg/L
same,MIC90,[15]; Staphylococcus aureus,8 mg/L
same,MIC99,[15]; [18],> 512 mg/L
same,MIC,"[15]; Staphylococcus aureus, Baicalein and ECG section",32 mg/L
same,MIC,"[15]; Staphylococcus aureus, Kuraridin and ECG section",512 mg/L
same,MIC,CA MRSA W45; [17],512 mg/L
same,FIC,"CA MRSA W45; W45, ECG with Kur",0.002
same,MIC combine,"CA MRSA W45; W45, ECG with Kur",1 mg/L
same,FIC,"CA MRSA W45; W45, ECG+Kur+Van",0.0004
same,MIC combine,"CA MRSA W45; W45, ECG+Kur+Van",0.25 mg/L
same,MIC alone,"CA MRSA W45; W45, Table 5",512 mg/L
same,MIC,CA MRSA W46; [17],512 mg/L
same,FIC,"CA MRSA W46; W46, ECG with Kur",0.015
same,MIC combine,"CA MRSA W46; W46, ECG with Kur",8 mg/L
same,FIC,"CA MRSA W46; W46, ECG+Kur+Van",0.002
same,MIC combine,"CA MRSA W46; W46, ECG+Kur+Van",1 mg/L
same,MIC alone,"CA MRSA W46; W46, Table 5",512 mg/L
same,MIC,CA MRSA W47; [17],512 mg/L
same,FIC,"CA MRSA W47; W47, ECG with Kur",0.004
same,MIC combine,"CA MRSA W47; W47, ECG with Kur",2 mg/L
same,FIC,"CA MRSA W47; W47, ECG+Kur+Van",0.0004
same,MIC combine,"CA MRSA W47; W47, ECG+Kur+Van",0.25 mg/L
same,MIC alone,"CA MRSA W47; W47, Table 5",512 mg/L
same,MIC,CA MRSA W48; [17],512 mg/L
same,FIC,"CA MRSA W48; W48, ECG with Kur",0.002
same,MIC combine,"CA MRSA W48; W48, ECG with Kur",1 mg/L
same,FIC,"CA MRSA W48; W48, ECG+Kur+Van",0.002
same,MIC combine,"CA MRSA W48; W48, ECG+Kur+Van",1 mg/L
same,MIC alone,"CA MRSA W48; W48, Table 5",512 mg/L
same,MIC,HA MRSA W231; [17],512 mg/L
same,MIC alone,HA MRSA W231; W231 (gentamicin resistant),512 mg/L
same,FIC,"HA MRSA W231; W231, ECG with Kur",0.016
same,MIC combine,"HA MRSA W231; W231, ECG with Kur",8 mg/L
same,FIC,"HA MRSA W231; W231, ECG+Kur+Gen",0.0004
same,MIC combine,"HA MRSA W231; W231, ECG+Kur+Gen",0.25 mg/L
same,FIC,"HA MRSA W231; W231, ECG+Kur, no Gen",0.008
same,MIC combine,"HA MRSA W231; W231, ECG+Kur, no Gen",4 mg/L
same,MIC alone,"HA MRSA W231; W231, Table 5",512 mg/L
same,MIC,HA MRSA W234; [17],512 mg/L
same,FIC,"HA MRSA W234; W234, ECG with Kur",0.002
same,MIC combine,"HA MRSA W234; W234, ECG with Kur",1 mg/L
same,MIC90,"[16]; Staphylococcus aureus, MRSA",4 to 16 mg/L
same,concentration for 99.9% inhibition,[16]; panel of laboratory strains,> 512 µg/mL
